According to patent US9663512B2, “Bicyclic heterocycle compounds and their uses in therapy” (ASTEX THERAPEUTICS LIMITED, priority 2012, dated 2017):
Where a name gives a salt, the structure may show the parent alone. Read-outs that look alike come from different tables or passages of the source.

Experiments:
[1] = system: EVSA-T (human breast carcinoma); assay: Anti-proliferative activity, Alamar Blue assay, EVSA-T; format: cell-based; conditions: EVSA-T cell line, read-out: EVSA-T prolif (EC50)
[2] = target: T1, BIR3 domain of human XIAP (Homo sapiens, UniProt P98170); assay: XIAP in vitro competitive displacement binding assay (fluorescence polarization); conditions: for inhibition at 0.04 µM / inhibition at […]: read-out: Xiap IC50 or PI (percent inhibition); for IC50: XIAP BIR3 fluorescence polarization displacement, average (e.g. geometric mean), read-out: Xiap IC50 or PI (IC50); for inhibition at […]: at 0.12 μM
T1 construct: BIR3 domain of human XIAP (residues 252-350) fused to a His-tag; His-tag (cleaved yes); made in house; host or cells: Escherichia coli
T1 sequence (P98170 252-350): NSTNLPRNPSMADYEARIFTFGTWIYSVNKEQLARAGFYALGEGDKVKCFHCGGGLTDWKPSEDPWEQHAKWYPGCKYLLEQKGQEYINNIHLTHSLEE

[3] = target: T2, BIR3 domain of human cIAP-1 (Homo sapiens, UniProt Q13490); assay: cIAP-1 in vitro competitive displacement binding assay (fluorescence polarization); conditions: at 0.012 μM; read-out: cIAP1 IC50 or PI (percent inhibition)
T2 construct: human cIAP-1 (residues 267-363) fused to a GST-tag; GST-tag (cleaved yes); made in house; host or cells: Escherichia coli
T2 sequence (Q13490 267-363): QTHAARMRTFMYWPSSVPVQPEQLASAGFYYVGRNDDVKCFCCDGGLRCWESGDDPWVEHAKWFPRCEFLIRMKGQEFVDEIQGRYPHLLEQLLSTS

| SMILES | EC50 ([1]; 72 hours) [nM] | inhibition at 0.04 µM [2] [%] | inhibition at […] [3] [%] | other results |
| --- | --- | --- | --- | --- |
| Cc1cn(C[C@H]2CN[C@H](C)CN2CC(=O)N2CC(C)(C)c3ncc(Cc4ccc(F)cc4)cc32)nn1 [Example 16, 1-{6-[(4-Fluorophenyl)methyl]-3,3-dimethyl-1H,2H,3H-pyrrolo[3,2-b]pyridin-1-yl}-2-[(2R,5R)-5-methyl-2-[(4-methyl-1H-1,2,3-triazol-1-yl)methyl]piperazin-1-yl]ethan-1-one, dihydrochloride] | 8.5 |  |  |  |
| Cc1cnn(C[C@H]2CN[C@H](C)CN2CC(=O)N2CC(C)(C)c3ncc(Cc4ccc(F)cc4)cc32)c1C (single isomer, unassigned) [Example 20, dihydrochloride] | < 1000 |  |  | EC50 ([1]; EVSA-T, 72 h): 2.1 nM |
| Cc1cncn1C[C@H]1CN[C@H](C)CN1CC(=O)N1CC(C)(C)c2ncc(Cc3ccc(F)cc3)cc21 (single isomer, unassigned) [Example 14, dihydrochloride] | 5.9 |  |  |  |
| Cc1ncn(C[C@H]2CN[C@H](C)CN2CC(=O)N2CC(C)(C)c3ncc(Cc4ccc(F)cc4)cc32)c1C [Example 3, 2-[(2R,5R)-2-[(4,5-Dimethyl-1H-imidazol-1-yl)methyl]-5-methylpiperazin-1-yl]-1-{6-[(4-fluorophenyl)methyl]-3,3-dimethyl-1H,2H,3H-pyrrolo[3,2-b]pyridin-1-yl}ethan-1-one, dihydrochloride] |  | 34 | 99 |  |
| Cc1cnnn1C[C@H]1CN[C@H](C)CN1CC(=O)N1CC(C)(C)c2ncc(Cc3ccc(F)cc3)cc21 [Example 15, 1-{6-[(4-Fluorophenyl)methyl]-3,3-dimethyl-1H,2H,3H-pyrrolo[3,2-b]pyridin-1-yl}-2-[(2R,5R)-5-methyl-2-[(5-methyl-1H-1,2,3-triazol-1-yl)methyl]piperazin-1-yl]ethan-1-one, dihydrochloride] | 9.4 |  |  | IC50 [2]: 220 nM |
| Cc1cc(C)n(C[C@H]2CN[C@H](C)CN2CC(=O)N2CC(C)(C)c3ncc(Cc4ccc(F)cc4)cc32)n1 [Example 1, 2-[(2R,5R)-2-[(3,5-Dimethyl-1H-pyrazol-1-yl)methyl]-5-methylpiperazin-1-yl]-1-{6-[(4-fluorophenyl)methyl]-3,3-dimethyl-1H,2H,3H-pyrrolo[3,2-b]pyridin-1-yl}ethan-1-one, dihydrochloride] |  |  |  | IC50 [2]: 91 nM |
| C[C@@H]1CN(CC(=O)N2CC(C)(C)c3ncc(Cc4ccc(F)cc4)cc32)[C@@H](Cn2ccnc2C(F)(F)F)CN1 [Example 5, 1-{6-[(4-Fluorophenyl)methyl]-3,3-dimethyl-1H,2H,3H-pyrrolo[3,2-b]pyridin-1-yl}-2-[(2R,5R)-5-methyl-2-{[2-(trifluoromethyl)-1H-imidazol-1-yl]methyl}piperazin-1-yl]ethan-1-one, dihydrochloride] |  |  | 96 | IC50 [2]: 110 nM |
| Cc1ncnn1C[C@H]1CN[C@H](C)CN1CC(=O)N1CC(C)(C)c2ncc(Cc3ccc(F)cc3)cc21 [Example 21, 1-{6-[(4-Fluorophenyl)methyl]-3,3-dimethyl-1H,2H,3H-pyrrolo[3,2-b]pyridin-1-yl}-2-[(2R,5R)-5-methyl-2-[(5-methyl-1H-1,2,4-triazol-1-yl)methyl]piperazin-1-yl]ethan-1-one] |  |  | 95 | inhibition at […] [2]: 61% |
| CCc1nccn1C[C@H]1CN[C@H](C)CN1CC(=O)N1CC(C)(C)c2ncc(Cc3ccc(F)cc3)cc21 [Example 4, 2-[(2R,5R)-2-[(2-Ethyl-1H-imidazol-1-yl)methyl]-5-methylpiperazin-1-yl]-1-{6-[(4-fluorophenyl)methyl]-3,3-dimethyl-1H,2H,3H-pyrrolo[3,2-b]pyridin-1-yl}ethan-1-one, dihydrochloride] |  | 35 | 96 |  |
| Cc1ccc(=O)n(C[C@H]2CN[C@H](C)CN2CC(=O)N2CC(C)(C)c3ncc(Cc4ccc(F)cc4)cc32)c1 [Example 9, 1-{[(2R,5R)-1-(2-{6-[(4-Fluorophenyl)methyl]-3,3-dimethyl-1H,2H,3H-pyrrolo[3,2-b]pyridin-1-yl}-2-oxoethyl)-5-methylpiperazin-2-yl]methyl}-5-methyl-1,2-dihydropyridin-2-one, dihydrochloride] |  | 35 | 92 |  |
| Cc1nc(Cl)cn1C[C@H]1CN[C@H](C)CN1CC(=O)N1CC(C)(C)c2ncc(Cc3ccc(F)cc3)cc21 [Example 11, 2-[(2R,5R)-2-[(4-Chloro-2-methyl-1H-imidazol-1-yl)methyl]-5-methylpiperazin-1-yl]-1-{6-[(4-fluorophenyl)methyl]-3,3-dimethyl-1H,2H,3H-pyrrolo[3,2-b]pyridin-1-yl}ethan-1-one, dihydrochloride] |  |  |  | EC50 ([1]; EVSA-T, 72 h): 1.8 nM |
| Cc1cn(C[C@H]2CN[C@H](C)CN2CC(=O)N2CC(C)(C)c3ncc(Cc4ccc(F)cc4)cc32)cn1 (single isomer, unassigned) [Example 13, dihydrochloride] | 9.9 |  |  |  |
| C[C@@H]1CN(CC(=O)N2CC(C)(C)c3ncc(Cc4ccc(F)cc4)cc32)[C@@H](Cn2ccnc2)CN1 [Example 6, 1-{6-[(4-Fluorophenyl)methyl]-3,3-dimethyl-1H,2H,3H-pyrrolo[3,2-b]pyridin-1-yl}-2-[(2R,5R)-2-(1H-imidazol-1-ylmethyl)-5-methylpiperazin-1-yl]ethan-1-one, dihydrochloride] |  |  |  | inhibition at […] [2]: 54% |
| Cc1cn(C[C@H]2CN[C@H](C)CN2CC(=O)N2CC(C)(C)c3ncc(Cc4ccc(F)cc4)cc32)c(C)n1 [Example 7, 2-[(2R,5R)-2-[(2,4-Dimethyl-1H-imidazol-1-yl)methyl]-5-methylpiperazin-1-yl]-1-{6-[(4-fluorophenyl)methyl]-3,3-dimethyl-1H,2H,3H-pyrrolo[3,2-b]pyridin-1-yl}ethan-1-one, dihydrochloride] | 2.9 |  |  |  |
| C[C@@H]1CN(CC(=O)N2CC(C)(C)c3ncc(Cc4ccc(F)cc4)cc32)[C@@H](Cn2ccnc2C#N)CN1 [Example 10, 1-{[(2R,5R)-1-(2-{6-[(4-Fluorophenyl)methyl]-3,3-dimethyl-1H,2H,3H-pyrrolo[3,2-b]pyridin-1-yl}-2-oxoethyl)-5-methylpiperazin-2-yl]methyl}-1H-imidazole-2-carbonitrile, L-lactate] |  |  |  | EC50 ([1]; EVSA-T, 72 h): 6.4 nM |
| C[C@@H]1CN(CC(=O)N2CC(C)(C)c3ncc(Cc4ccc(F)cc4)cc32)[C@@H](Cn2ccnc2Cl)CN1 [Example 8, 2-[(2R,5R)-2-[(2-Chloro-1H-imidazol-1-yl)methyl]-5-methylpiperazin-1-yl]-1-{6-[(4-fluorophenyl)methyl]-3,3-dimethyl-1H,2H,3H-pyrrolo[3,2-b]pyridin-1-yl}ethan-1-one, dihydrochloride] |  | 36 | 100 |  |
| Cc1cn(C[C@H]2CN[C@H](C)CN2CC(=O)N2CC(C)(C)c3ncc(Cc4ccc(F)cc4)cc32)ccc1=O [Example 38, 1-{[(2R,5R)-1-(2-{6-[(4-Fluorophenyl)methyl]-3,3-dimethyl-1H,2H,3H-pyrrolo[3,2-b]pyridin-1-yl}-2-oxoethyl)-5-methylpiperazin-2-yl]methyl}-3-methyl-1,4-dihydropyridin-4-one, dihydrochloride] |  | 48 | 94 |  |
| Cc1cc(C[C@H]2CN[C@H](C)CN2CC(=O)N2CC(C)(C)c3ncc(Cc4ccc(F)cc4F)cc32)n(C)n1 [Example 22, 1-{6-[(2,4-Difluorophenyl)methyl]-3,3-dimethyl-1H,2H,3H-pyrrolo[3,2-b]pyridin-1-yl}-2-[(2S,5R)-2-[(1,3-dimethyl-1H-pyrazol-5-yl)methyl]-5-methylpiperazin-1-yl]ethan-1-one, dihydrochloride] |  | 47 |  |  |
| Cc1nccn1C[C@H]1CN[C@H](C)CN1CC(=O)N1CC(C)(C)c2ncc(Cc3ccc(F)cc3)cc21 [Example 2, 1-{6-[(4-Fluorophenyl)methyl]-3,3-dimethyl-1H,2H,3H-pyrrolo[3,2-b]pyridin-1-yl}-2-[(2R,5R)-5-methyl-2-[(2-methyl-1H-imidazol-1-yl)methyl]piperazin-1-yl]ethan-1-one, dihydrochloride] |  |  | 100 | inhibition at […] [2]: 65% |
